In patent US20110028441A1, “NOVEL PHENYL-SUBSTITUTED PIPERAZINO-DIHYDROTHIENOPYRIMIDINES” (BOEHRINGER INGELHEIM INTERNATIONAL GMBH, priority 2007, published 2011) one finds inhibition data, which are given here for eleven molecules.

Molecules are shown by their SMILES.

Chain of PDE4B (Q07343 whole entry, species assumed): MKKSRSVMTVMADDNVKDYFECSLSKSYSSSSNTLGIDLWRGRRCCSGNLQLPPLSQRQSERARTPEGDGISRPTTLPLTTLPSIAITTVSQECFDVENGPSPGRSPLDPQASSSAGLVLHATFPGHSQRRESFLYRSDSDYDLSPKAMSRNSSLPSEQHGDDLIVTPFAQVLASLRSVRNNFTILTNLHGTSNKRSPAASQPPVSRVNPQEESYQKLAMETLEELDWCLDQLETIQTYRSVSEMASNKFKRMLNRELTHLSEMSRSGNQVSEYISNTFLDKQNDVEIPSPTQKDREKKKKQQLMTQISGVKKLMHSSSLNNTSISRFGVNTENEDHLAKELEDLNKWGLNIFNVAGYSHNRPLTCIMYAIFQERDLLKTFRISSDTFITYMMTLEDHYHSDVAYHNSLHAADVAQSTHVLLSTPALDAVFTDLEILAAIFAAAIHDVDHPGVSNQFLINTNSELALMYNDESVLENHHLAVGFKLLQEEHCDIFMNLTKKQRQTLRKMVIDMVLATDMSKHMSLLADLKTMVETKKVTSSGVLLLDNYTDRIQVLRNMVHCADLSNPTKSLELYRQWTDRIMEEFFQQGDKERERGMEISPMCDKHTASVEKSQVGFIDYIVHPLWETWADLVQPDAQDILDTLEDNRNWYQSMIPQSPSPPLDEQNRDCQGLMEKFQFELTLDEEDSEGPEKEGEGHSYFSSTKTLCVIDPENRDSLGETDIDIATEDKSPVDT

In the first assay the target is PDE4B (Homo sapiens, UniProt Q07343). Kind of assay: Scintillation Proximity (SPA) Assay of PDE4B enzyme inhibition. It is filed as biochemical. Conditions: read-out: % Inhibition PDE4B @ 1 μM. As to the method: The inhibitions (in %) at 1 μM of the individual Example substances are included in the following Tables of Examples and were determined as follows:
The Scintillation Proximity (SPA) Assays (GE Healthcare, No. TRKQ7090) make use of the different affinities of cyclic 3′-5′-adenosine monophosphate (cAMP, low affinity) and linear 5′-adenosine monophosphate (AMP, high affinity) for yttrium silicate scintillator beads. The cAMP specific phosphodiesterase (PDE) PDE4B cleaves the 3′-phosphoester bond of the tritium-labelled [H3]-cAMP to form the [H3]-5′-AMP. Because of its higher affinity for the scintillator beads this [H3]-AMP accumulates on the beads and causes scintillation events (flashes of light) which are measured in a Wallac Microbeta Scintillation Counter.
The test starts with one hours incubation of [H3]-cAMP with the PDE4B enzyme in assay buffer at 30° C., once with the Example substance that is to be tested (in a concentration of 1 μM) and once without the Example substance that is to be tested. After this incubation the reaction is stopped by the addition of the beads. The beads are given an opportunity to settle over the next 45 minutes, then they are measured in the Scintillation Counter. If the substance is capable of inhibiting the enzymatic activity of the PDE4B, less [H3]-AMP is formed during the incubation phase and fewer scintillation events can be measured.
In the case of `Cc1cc(Cl)ccc1N1CCN(c2nc3c(c(N[C@H]4CCC(=O)N(C)C4)n2)[S+]([O-])CC3)CC1` (stereo partly drawn) [Example 90, (S)-5-{2-[4-(4-CHLORO-2-METHYLPHENYL)-PIPERAZIN-1-YL]-5-OXO-6,7-DIHYDRO-5H-5λ^4-THIENO[3,2-D]PYRIMIDIN-4-YLAMINO}-1-METHYLPIPERIDIN-2-ONE], the inhibition (commonly the change of the read-out against control, counted positive when it falls) at 1 µM is 97%. As to `Cc1cc(C)cc(N2CCN(c3nc4c(c(Nc5cccc(F)c5)n3)[S+]([O-])CC4)CC2)c1` (centres unmarked) [Example 100, {2-[4-(3,5-DIMETHYLPHENYL)-PIPERAZIN-1-YL]-5-OXO-6,7-DIHYDRO-5H-5λ^4-THIENO[3,2-D]PYRIMIDIN-4-YL}-(3-FLUOROPHENYL)-AMINE], the inhibition at 1 µM came to 97%.

Staying with this assay, now noted: test substance 1 μM; one hour incubation of [H3]-cAMP with PDE4B enzyme at 30° C.; read-out: % Inhibition PDE4B @ 1 μM.
For `CC(C)[C@H](CO)Nc1nc(N2CCN(c3cc(Cl)cc(Cl)c3)CC2)nc2c1[S+]([O-])CC2` (stereo partly drawn) [Example 68, (R)-2-{2-[4-(3,5-DICHLOROPHENYL)-PIPERAZIN-1-YL]-5-OXO-6,7-DIHYDRO-5H-5λ^4-THIENO[3,2-D]PYRIMIDIN-4-YLAMINO}-3-METHYLBUTAN-1-OL], the inhibition at 1 µM came out at 96%. For the molecule `Cc1cc(Cl)ccc1N1CCN(c2nc3c(c(N[C@@H](CO)C(C)C)n2)[S+]([O-])CC3)CC1` (stereo partly drawn) [Example 75, (R)-2-{2-[4-(4-CHLORO-2-METHYLPHENYL)-PIPERAZIN-1-YL]-5-OXO-6,7-DIHYDRO-5H-5λ^4-THIENO[3,2-D]PYRIMIDIN-4-YLAMINO}-3-METHYLBUTAN-1-OL], the inhibition at 1 µM was 90%.

Consider `Cc1cc(Cl)ccc1N1CCN(c2nc3c(c(NC4(CO)CC4)n2)[S+]([O-])CC3)CC1` (centres unmarked) [Example 81, (1-{2-[4-(4-CHLORO-2-METHYLPHENYL)-PIPERAZIN-1-YL]-5-OXO-6,7-DIHYDRO-5H-5λ^4-THIENO[3,2-D]PYRIMIDIN-4-YLAMINO}-CYCLOPROPYL)-METHANOL], for which the inhibition at 1 µM amounted to 95%.

With `Cc1cc(Cl)ccc1N1CCN(c2nc3c(c(NC4CCOCC4)n2)[S+]([O-])CC3)CC1` (centres unmarked) [Example 98, {2-[4-(4-CHLORO-2-METHYLPHENYL)-PIPERAZIN-1-YL]-5-OXO-6,7-DIHYDRO-5H-5λ^4-THIENO[3,2-D]PYRIMIDIN-4-YL}-(TETRAHYDROPYRAN-4-YL)-AMINE], the inhibition at 1 µM was 96%. With `[O-][S+]1CCc2nc(N3CCN(c4cc(Cl)cc(Cl)c4)CC3)nc(Nc3cccc(F)c3)c21` (centres unmarked) [Example 99, {2-[4-(3,5-DICHLOROPHENYL)-PIPERAZIN-1-YL]-5-OXO-6,7-DIHYDRO-5H-5λ^4-THIENO[3,2-D]PYRIMIDIN-4-YL}-(3-FLUOROPHENYL)-AMINE], the inhibition at 1 µM amounted to 96%. Regarding `[O-][S+]1CCc2nc(N3CCN(c4ccc(Cl)cc4F)CC3)nc(NC3(CO)CC3)c21` (centres unmarked) [Example 105, (1-{2-[4-(4-CHLORO-2-FLUOROPHENYL)-PIPERAZIN-1-YL]-5-OXO-6,7-DIHYDRO-5H-5λ^4-THIENO[3,2-D]PYRIMIDIN-4-YLAMINO}-CYCLOPROPYL)-METHANOL], the inhibition at 1 µM turned out to be 94%. On to `[O-][S+]1CCc2nc(N3CCN(c4ccc(Cl)cc4F)CC3)nc(NC3CCOCC3)c21` (centres unmarked) [Example 107, {2-[4-(4-CHLORO-2-FLUOROPHENYL)-PIPERAZIN-1-YL]-5-OXO-6,7-DIHYDRO-5H-5λ^4-THIENO[3,2-D]PYRIMIDIN-4-YL}-(TETRAHYDROPYRAN-4-YL)-AMINE], for which the inhibition at 1 µM was 94%. On the same count and under the same terms, for `[O-][S+]1CCc2nc(N3CCN(c4ccc(Cl)cc4F)CC3)nc(Nc3cccc(F)c3)c21` (centres unmarked) [Example 109, {2-[4-(4-CHLORO-2-FLUOROPHENYL)-PIPERAZIN-1-YL]-5-OXO-6,7-DIHYDRO-5H-5λ^4-THIENO[3,2-D]PYRIMIDIN-4-YL}-(3-FLUOROPHENYL)-AMINE] the value was 92%; for `CC(C)[C@H](CO)Nc1nc(N2CCN(c3ccc(Cl)cc3F)CC2)nc2c1[S+]([O-])CC2` (stereo partly drawn) [Example 111, (R)-2-{2-[4-(4-CHLORO-2-FLUOROPHENYL)-PIPERAZIN-1-YL]-5-OXO-6,7-DIHYDRO-5H-5λ^4-THIENO[3,2-D]PYRIMIDIN-4-YLAMINO}-3-METHYLBUTAN-1-OL], 92%.
